Measurements published in patent US20240041042A1, “1-(PYRIDYL)-5-AZINYLPYRAZOLE DERIVATIVES, AND THEIR USE FOR CONTROL OF UNDESIRED PLANT GROWTH” (Bayer Aktiengesellschaft, priority 2020, published 2024).

Experiments:
Assay type in all cases: in vivo
[1] = test system: Alopecurus myosuroides (ALOMY); experiment: Post-emergence herbicidal action against ALOMY; settings: visual rating about 3 weeks after treatment vs untreated controls (100% = plants have died, 0% = like control plants)
Procedure, shortened: (§1)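 Post-emergence greenhouse spray, one-leaf stage, 600 l/ha water plus 0.5% additive; WP or EC formulations; application rates 320 g/ha or lower. Visual % damage vs untreated controls at ~3 weeks.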

[2] = test system: Lolium rigidum (LOLRI); experiment: Post-emergence herbicidal action against LOLRI
Procedure, shortened: as §1

[3] = test system: Abutilon theophrasti (ABUTH); experiment: Pre-emergence herbicidal action against ABUTH; settings: 100% = plants have died
Procedure, shortened: (§2)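 Greenhouse pot trial: seeds sown, soil-covered, sprayed before emergence with compound in water (0.5% additive; 600 l/ha; ≤320 g/ha). Scoring visual, ~3 weeks, 0–100% scale vs untreated.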

[4] = test system: Abutilon theophrasti (ABUTH); experiment: Post-emergence herbicidal action against ABUTH; settings: visual rating about 3 weeks after treatment vs untreated controls (100% = plants have died, 0% = like control plants)
Procedure, shortened: as §1

[5] = test system: Setaria viridis (SETVI); experiment: Post-emergence herbicidal action against SETVI
Procedure, shortened: as §1

[6] = test system: Matricaria inodora (MATIN); experiment: Post-emergence herbicidal action against MATIN
Procedure, shortened: as §1

[7] = test system: Echinochloa crus-galli (ECHCG); experiment: Pre-emergence herbicidal action against ECHCG
Procedure, shortened: as §2

[8] = test system: Viola tricolor (VIOTR); experiment: Post-emergence herbicidal action against VIOTR
Procedure, shortened: as §1

[9] = test system: Avena fatua (AVEFA); experiment: Pre-emergence herbicidal action against AVEFA; settings: visual scoring after about 3 weeks vs untreated controls
Procedure, shortened: as §2

[10] = test system: Echinochloa crus-galli (ECHCG); experiment: Post-emergence herbicidal action against ECHCG
Procedure, shortened: as §1

[11] = test system: Pharbitis purpurea (PHBPU); experiment: Post-emergence herbicidal action against PHBPU
Procedure, shortened: as §1

[12] = test system: Alopecurus myosuroides (ALOMY); experiment: Pre-emergence herbicidal action against ALOMY; settings: scored visually after about 3 weeks, 100% = plants have died
Procedure, shortened: as §2

[13] = test system: Viola tricolor (VIOTR); experiment: Pre-emergence herbicidal action against VIOTR
Procedure, shortened: as §2

[14] = test system: Polygonum convolvulus (POLCO); experiment: Pre-emergence herbicidal action against POLCO
Procedure, shortened: as §2

[15] = test system: Amaranthus retroflexus (AMARE); experiment: Pre-emergence herbicidal action against AMARE; settings: visual scoring after about 3 weeks vs untreated controls
Procedure, shortened: as §2

[16] = test system: Setaria viridis (SETVI); experiment: Pre-emergence herbicidal action against SETVI
Procedure, shortened: as §2

[17] = test system: Verconica persica (VERPE); experiment: Pre-emergence herbicidal action against VERPE
Procedure, shortened: as §2

[18] = test system: Avena fatua (AVEFA); experiment: Post-emergence herbicidal action against AVEFA; settings: visual rating about 3 weeks after treatment
Procedure, shortened: as §1

[19] = test system: Lolium rigidum (LOLRI); experiment: Pre-emergence herbicidal action against LOLRI
Procedure, shortened: as §2

[20] = test system: Polygonum convolvulus (POLCO); experiment: Post-emergence herbicidal action against POLCO
Procedure, shortened: as §1

[21] = test system: Pharbitis purpurea (PHBPU); experiment: Pre-emergence herbicidal action against PHBPU
Procedure, shortened: as §2

[22] = test system: Matricaria inodora (MATIN); experiment: Pre-emergence herbicidal action against MATIN
Procedure, shortened: as §2

[23] = test system: Amaranthus retroflexus (AMARE); experiment: Post-emergence herbicidal action against AMARE
Procedure, shortened: as §1

[24] = test system: Verconica persica (VERPE); experiment: Post-emergence herbicidal action against VERPE
Procedure, shortened: as §1

[25] = 80 g/ha, scored visually after about 3 weeks vs untreated controls, 0% = like control plants
[26] = Dosage column 320 g/ha (title prints 3200 g/ha), scored visually after about 3 weeks
[27] = 80 g/ha, visual rating about 3 weeks after treatment vs untreated controls (100% = plants have died, 0% = like control plants)
[28] = 320 g/ha, visual rating about 3 weeks after treatment

COC(=O)[C@@H](C)Oc1nn(-c2ncccc2F)c(-c2ccc(F)nc2)c1C(F)(F)F [Example I-331]
100%: Post-emergence action against ALOMY in % ([1]; 80 g/ha) | Post-emergence action against ALOMY in % ([1]; 320 g/ha) | Pre-emergence action against ECHCG in % ([7]; dosage 320 g/ha) | Pre-emergence action against AVEFA in % ([9]; 80 g/ha) | Pre-emergence action against AVEFA in % ([9]; 320 g/ha) | Pre-emergence action against ALOMY ([12]; 80 g/ha) | Pre-emergence action against ALOMY ([12]; 320 g/ha) | Pre-emergence action against VIOTR in % ([13]; 320 g/ha, Viola tricolor) | Pre-emergence action against VIOTR in % ([13]; dosage 80 g/ha) | Pre-emergence action against POLCO in % ([14]; dosage 80 g/ha) | Pre-emergence action against POLCO in % ([14]; dosage 320 g/ha) | Pre-emergence action against AMARE in % ([15]; 80 g/ha) | Pre-emergence action against AMARE in % ([15]; 320 g/ha) | Pre-emergence action against VERPE in % ([17]; dosage 80 g/ha) | Pre-emergence action against VERPE in % ([17]; dosage 320 g/ha) | Pre-emergence action against LOLRI in % ([19]; dosage 320 g/ha) | Pre-emergence action against MATIN in % ([22]; dosage 80 g/ha) | Pre-emergence action against MATIN in % ([22]; dosage 320 g/ha)
80%: Pre-emergence action against ABUTH [3, 25] | Post-emergence action against MATIN in % ([6]; dosage 80 g/ha) | Post-emergence action against MATIN in % ([6]; dosage 320 g/ha) | Pre-emergence action against ECHCG in % ([7]; dosage 80 g/ha) | Post-emergence action against VIOTR in % ([8]; 80 g/ha) | Post-emergence action against VIOTR in % ([8]; 320 g/ha) | Post-emergence action against POLCO in % ([20]; dosage 80 g/ha) | Post-emergence action against POLCO in % ([20]; dosage 320 g/ha) | Post-emergence action against AMARE in % [23, 27] | Post-emergence action against AMARE in % [23, 28]
90%: Post-emergence action against LOLRI in % ([2]; dosage 80 g/ha) | Post-emergence action against LOLRI in % ([2]; dosage 320 g/ha) | Pre-emergence action against ABUTH [3, 26] | Post-emergence action against ABUTH in % ([4]; 80 g/ha) | Post-emergence action against ABUTH in % ([4]; 320 g/ha) | Post-emergence action against SETVI in % ([5]; dosage 80 g/ha) | Post-emergence action against SETVI in % ([5]; dosage 320 g/ha) | Post-emergence action against ECHCG in % ([10]; dosage 80 g/ha) | Post-emergence action against ECHCG in % ([10]; dosage 320 g/ha) | Post-emergence action against PHBPU in % ([11]; dosage 320 g/ha) | Pre-emergence action against SETVI in % ([16]; dosage 320 g/ha) | Post-emergence action against AVEFA in % ([18]; 80 g/ha) | Post-emergence action against AVEFA in % ([18]; 320 g/ha) | Pre-emergence action against LOLRI in % ([19]; dosage 80 g/ha) | Pre-emergence action against PHBPU in % ([21]; dosage 320 g/ha) | Post-emergence action against VERPE in % ([24]; 320 g/ha, VERPE) | Post-emergence action against VERPE in % ([24]; dosage 80 g/ha)

COC(=O)CCOC(=O)[C@@H](C)Oc1nn(-c2ccccn2)c(-c2cncc(F)c2)c1Cl [Example I-196]
100%: Pre-emergence action against VIOTR in % ([13]; 320 g/ha, Viola tricolor) | Pre-emergence action against AMARE in % ([15]; 80 g/ha) | Pre-emergence action against AMARE in % ([15]; 320 g/ha) | Pre-emergence action against SETVI in % ([16]; dosage 320 g/ha) | Pre-emergence action against VERPE in % ([17]; dosage 320 g/ha) | Pre-emergence action against LOLRI in % ([19]; dosage 80 g/ha) | Pre-emergence action against LOLRI in % ([19]; dosage 320 g/ha)
90%: Post-emergence action against ALOMY in % ([1]; 320 g/ha) | Post-emergence action against LOLRI in % ([2]; dosage 80 g/ha) | Post-emergence action against LOLRI in % ([2]; dosage 320 g/ha) | Pre-emergence action against ABUTH [3, 26] | Pre-emergence action against ECHCG in % ([7]; dosage 80 g/ha) | Pre-emergence action against ECHCG in % ([7]; dosage 320 g/ha) | Pre-emergence action against AVEFA in % ([9]; 320 g/ha) | Post-emergence action against PHBPU in % ([11]; dosage 80 g/ha) | Post-emergence action against PHBPU in % ([11]; dosage 320 g/ha) | Pre-emergence action against ALOMY ([12]; 320 g/ha) | Pre-emergence action against VIOTR in % ([13]; dosage 80 g/ha) | Pre-emergence action against POLCO in % ([14]; dosage 80 g/ha) | Pre-emergence action against POLCO in % ([14]; dosage 320 g/ha) | Pre-emergence action against SETVI in % ([16]; dosage 80 g/ha) | Pre-emergence action against VERPE in % ([17]; dosage 80 g/ha) | Post-emergence action against AVEFA in % ([18]; 320 g/ha) | Pre-emergence action against PHBPU in % ([21]; dosage 80 g/ha) | Pre-emergence action against PHBPU in % ([21]; dosage 320 g/ha) | Pre-emergence action against MATIN in % ([22]; dosage 80 g/ha) | Pre-emergence action against MATIN in % ([22]; dosage 320 g/ha) | Post-emergence action against VERPE in % ([24]; 320 g/ha, VERPE)
80%: Post-emergence action against ALOMY in % ([1]; 80 g/ha) | Pre-emergence action against ABUTH [3, 25] | Post-emergence action against ABUTH in % ([4]; 80 g/ha) | Post-emergence action against ABUTH in % ([4]; 320 g/ha) | Post-emergence action against SETVI in % ([5]; dosage 80 g/ha) | Post-emergence action against SETVI in % ([5]; dosage 320 g/ha) | Post-emergence action against MATIN in % ([6]; dosage 320 g/ha) | Post-emergence action against VIOTR in % ([8]; 80 g/ha) | Post-emergence action against VIOTR in % ([8]; 320 g/ha) | Pre-emergence action against AVEFA in % ([9]; 80 g/ha) | Post-emergence action against ECHCG in % ([10]; dosage 80 g/ha) | Post-emergence action against ECHCG in % ([10]; dosage 320 g/ha) | Post-emergence action against AVEFA in % ([18]; 80 g/ha) | Post-emergence action against POLCO in % ([20]; dosage 80 g/ha) | Post-emergence action against POLCO in % ([20]; dosage 320 g/ha) | Post-emergence action against AMARE in % [23, 27] | Post-emergence action against AMARE in % [23, 28] | Post-emergence action against VERPE in % ([24]; dosage 80 g/ha)
